Earlier results on one compound are cited in patent US20100278900A1, “CHLORINE DIOXIDE BASED GUM AND CANDY” (BASF Corporation, priority 2009, published 2010).

The conditions of this series: in the absence of traditional abrasives.

For `[O][Cl+][O-]` [chlorine dioxide], the polishing effect entry is on record as “polishing effect”.
